Measured values as given in patent US9328131B2, “Benzimidazolium compounds” (Boehringer Ingelheim International GmbH, priority 2013, dated 2016).

What was measured:
Mouse kidney M-1 cells = assay: Ussing Chamber assay: inhibition of amiloride sensitive short circuit current; type: cell-based; settings: compound in the apical solution, 37° C.
Protocol: Ussing Chamber: Mouse kidney M-1 cells were cultivated in DMEM containing 5% FCS and 5 μM dexamethasone for 10 to 12 days on polyester transwell filters. Filters were inserted into a teflon-coated well-plate which fit into the ussing chamber system. Prior to measurement the medium of M−1 cells was replaced with Caco-2 transport buffer (Invitrogen, Germany). During measurements, the Ussing chamber temperature was kept at 37° C. Short circuit currents (l_sc) were measured in the voltage-clamp mode with the software package Lab View for data acquisition and analysis. The transepithelial electrical resistance (TEER) was determined by the application of voltage steps of ±5 mV every 5 sec. Compounds were administered at a final concentration of 3 μM or at increasing concentrations (1-3-10 μM) to the apical solution. At the end of each experiment the amiloride sensitive l_SC was measured by adding 3 μM amiloride to the apical compartment. Results are expressed as inhibition in percent of the amiloride effect or as IC50.
With the example compounds given above, the following IC50 values were determined in the Ussing Chamber assay: […]

[1] = Permeability in CALU-3 cells; type: in vitro ADME; settings: human, CALU-3 monolayers, pH 7.4, 37° C., 10 μM compound
Protocol: Permeability in CALU-3 cells:
Permeability measurements across polarized, confluent CALU-3 cell monolayers grown on permeable filter supports are used to provide information on the potential of a compound to pass the lung epithelium. Apparent permeability coefficients (Papp) of the compounds across the CALU-3 cell monolayers are measured (pH 7.4, 37° C.) in apical-to-basal (AB) and basal-to-apical (BA) transport direction.
CALU-3 cells (1−2×10^5 cells/1 cm^2 area) are seeded on filter inserts (Costar transwell polycarbonate filters, 0.4 μm pore size) and cultured (DMEM) for 10-12 days until tight monolayers are formed. Compounds of interest are dissolved in appropriate solvent (DMSO, 10 mM stock solution). Stock solutions are diluted with HTP-4 buffer (128.13 mM NaCl, 5.36 mM KCl, 1 mM MgSO4, 1.8 mM CaCl2, 4.17 mM NaHCO3, 1.19 mM Na2HPO4×7H2O, 0.41 mM NaH2PO4×H2O, 15 mM HEPES, 20 mM glucose, 0.25% BSA, pH 7.4) to prepare the transport solutions (10 μM compound, final DMSO<=0.5%). The transport solution (TL) is applied to the apical or basolateral donor side for measuring A-B or B-A permeability (3 filter replicates), respectively. The receiver side contains the same buffer as the donor side. After 30 min of accommodation, samples are collected at the start t0=0 min and at the end of the experiment tn=90 min from the donor and at 0, 30, 60, and 90 min also from the receiver chamber. Volume removed is replenished by HTP-4 buffer. The compound concentration in the samples is measured by HPLC-MS/MS or scintillation counting. The permeability coefficient (Papp) and efflux ratio are calculated according to: Papp[cm/s]=(concentration receiver[nM]*volume receiver[mL]/time interval[sec])*(1/filter area)*(1/donor concentration[nM])
With example compounds given above, the following permeability values were determined in the CALU-3 cells assay: […]

Row | SMILES | IC50 (Mouse kidney M-1 cells) | Papp A→B at 90 min, 10 μM ([1]; apical-to-basal) | Papp B→A at 90 min, 10 μM ([1]; basal-to-apical) | Papp A→B ([1]; apical-to-basal) | Papp B→A ([1]; basal-to-apical)
1 | CCOP(=O)(OCC)c1ccc(CCC[n+]2c(CNC(=O)c3nc(Cl)c(N)nc3N)n(CC)c3cc(OC)ccc32)cc1.O=C([O-])C(F)(F)F [Example 1.1] | 2 nM | 0.16 ×10⁻⁶ cm/s | 0.28 ×10⁻⁶ cm/s | – | –
2 | CC[n+]1c(CNC(=O)c2nc(Cl)c(N)nc2N)n(CCCP(=O)(O)O)c2ccc(OC)cc21.O=C([O-])C(F)(F)F [Example 4.1] | 56 nM | < 0.34 ×10⁻⁶ cm/s | 0.08 ×10⁻⁶ cm/s | – | –
3 | CCn1c(CNC(=O)c2nc(Br)c(N)nc2N)[n+](CCOCCOCCO)c2ccc(OC)cc21.O=C([O-])C(F)(F)F [Example 2.1] | 1 nM | 0.23 ×10⁻⁶ cm/s | 0.4 ×10⁻⁶ cm/s | – | –
4 | CC[n+]1c(CNC(=O)c2nc(Cl)c(N)nc2N)n(C2CCN(C(C)=O)CC2)c2ccccc21.O=C[O-] [Example 3.1] | 5 nM | 1.7 ×10⁻⁶ cm/s | 0.45 ×10⁻⁶ cm/s | – | –
5 | CCOP(=O)([O-])CCCn1c(CNC(=O)c2nc(Cl)c(N)nc2N)[n+](CC)c2cc(OC)ccc21 [Example 5.1] | 29 nM | – | – | 0.17 ×10⁻⁶ cm/s | 0.05 ×10⁻⁶ cm/s
